What all share (assay): biochemical
Common to all, as to type: binding

Assay [1] addresses T1, panel of 442 kinases (Homo sapiens, UniProt Q99683).
T1 construct: purchased Ambit Biosciences (scanMAXX KINOMEscan)
T1 sequence (Q99683 1-1374): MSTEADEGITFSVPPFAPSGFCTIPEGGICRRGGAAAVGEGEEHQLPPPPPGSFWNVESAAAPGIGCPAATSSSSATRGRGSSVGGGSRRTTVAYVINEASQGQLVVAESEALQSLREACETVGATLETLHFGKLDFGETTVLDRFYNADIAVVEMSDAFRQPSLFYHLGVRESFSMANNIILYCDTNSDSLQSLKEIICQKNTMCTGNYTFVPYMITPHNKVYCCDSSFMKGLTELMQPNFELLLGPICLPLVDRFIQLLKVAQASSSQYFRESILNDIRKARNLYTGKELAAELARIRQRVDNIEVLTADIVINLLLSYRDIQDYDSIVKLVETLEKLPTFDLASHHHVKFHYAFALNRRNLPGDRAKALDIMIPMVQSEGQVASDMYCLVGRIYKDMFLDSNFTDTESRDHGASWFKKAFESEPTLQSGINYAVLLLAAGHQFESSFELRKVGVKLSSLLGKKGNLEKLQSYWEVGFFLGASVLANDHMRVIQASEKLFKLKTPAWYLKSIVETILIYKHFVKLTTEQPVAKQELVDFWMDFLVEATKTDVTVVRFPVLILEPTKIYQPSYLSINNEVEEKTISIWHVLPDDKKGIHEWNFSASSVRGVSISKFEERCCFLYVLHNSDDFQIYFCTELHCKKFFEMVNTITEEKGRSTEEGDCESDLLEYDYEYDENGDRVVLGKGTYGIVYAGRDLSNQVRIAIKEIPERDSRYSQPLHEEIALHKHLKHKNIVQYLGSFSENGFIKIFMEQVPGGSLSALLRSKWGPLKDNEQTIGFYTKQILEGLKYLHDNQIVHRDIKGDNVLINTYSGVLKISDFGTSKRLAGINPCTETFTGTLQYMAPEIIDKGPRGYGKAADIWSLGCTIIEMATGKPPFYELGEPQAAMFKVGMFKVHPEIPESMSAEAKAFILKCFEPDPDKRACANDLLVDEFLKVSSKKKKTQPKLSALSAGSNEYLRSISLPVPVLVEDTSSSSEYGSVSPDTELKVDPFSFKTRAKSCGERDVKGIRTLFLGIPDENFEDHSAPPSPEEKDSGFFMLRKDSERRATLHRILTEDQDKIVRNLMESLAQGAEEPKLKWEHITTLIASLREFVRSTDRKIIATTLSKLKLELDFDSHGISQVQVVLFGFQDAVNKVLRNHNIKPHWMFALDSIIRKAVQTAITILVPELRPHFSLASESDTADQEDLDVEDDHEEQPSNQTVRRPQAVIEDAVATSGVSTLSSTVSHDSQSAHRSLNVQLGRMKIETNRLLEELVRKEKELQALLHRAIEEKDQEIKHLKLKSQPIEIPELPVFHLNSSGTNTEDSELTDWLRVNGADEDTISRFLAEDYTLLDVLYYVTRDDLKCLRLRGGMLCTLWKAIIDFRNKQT
The note with it: ASK1; for remaining activity at 1 µM: read-out: % of control at 1 µM.

Assay [2] addresses T2, panel of 442 kinases (Plasmodium falciparum, UniProt P62344).
T2 construct: purchased Ambit Biosciences (scanMAXX KINOMEscan)
The note with it: kinase PFCDPK1(P.falciparum); for remaining activity at 1 µM: read-out: % of control at 1 µM; for remaining activity at 10 µM: read-out: % of control at 10 µM.

Assay [3] concerns the target T3, panel of 442 kinases (Homo sapiens, UniProt O00329).
T3 construct: purchased Ambit Biosciences (scanMAXX KINOMEscan)
T3 sequence (O00329 1-1044): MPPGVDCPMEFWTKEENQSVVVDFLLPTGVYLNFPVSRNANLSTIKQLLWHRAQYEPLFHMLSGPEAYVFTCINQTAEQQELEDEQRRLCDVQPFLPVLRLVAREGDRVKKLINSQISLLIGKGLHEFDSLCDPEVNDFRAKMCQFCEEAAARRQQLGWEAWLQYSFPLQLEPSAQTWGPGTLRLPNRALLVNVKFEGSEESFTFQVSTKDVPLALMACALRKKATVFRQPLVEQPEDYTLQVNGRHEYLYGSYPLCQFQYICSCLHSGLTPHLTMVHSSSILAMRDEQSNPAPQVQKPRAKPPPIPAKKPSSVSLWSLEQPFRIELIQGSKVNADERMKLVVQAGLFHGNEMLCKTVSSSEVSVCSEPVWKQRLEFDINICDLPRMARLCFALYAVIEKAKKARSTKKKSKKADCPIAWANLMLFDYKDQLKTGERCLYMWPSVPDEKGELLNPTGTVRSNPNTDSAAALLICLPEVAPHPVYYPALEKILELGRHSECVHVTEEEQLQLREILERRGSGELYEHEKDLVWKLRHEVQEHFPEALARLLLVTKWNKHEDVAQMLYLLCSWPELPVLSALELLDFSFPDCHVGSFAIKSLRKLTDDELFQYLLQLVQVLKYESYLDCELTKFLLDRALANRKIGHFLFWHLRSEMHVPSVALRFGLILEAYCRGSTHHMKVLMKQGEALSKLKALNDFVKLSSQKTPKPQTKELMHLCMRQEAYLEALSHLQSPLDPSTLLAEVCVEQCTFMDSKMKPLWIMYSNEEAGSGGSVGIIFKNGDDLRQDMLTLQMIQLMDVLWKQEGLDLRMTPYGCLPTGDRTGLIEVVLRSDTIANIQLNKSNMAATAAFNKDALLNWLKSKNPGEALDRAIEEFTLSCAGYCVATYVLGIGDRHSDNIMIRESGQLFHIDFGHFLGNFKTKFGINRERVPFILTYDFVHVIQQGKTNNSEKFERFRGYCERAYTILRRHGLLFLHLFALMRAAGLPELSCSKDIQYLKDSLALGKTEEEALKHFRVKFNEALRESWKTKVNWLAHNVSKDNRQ
The note with it: kinase PIK3CD; 1 µM; read-out: % of control at 1 µM.

The structures appear in SMILES notation.

T2 sequence (P62344 whole entry): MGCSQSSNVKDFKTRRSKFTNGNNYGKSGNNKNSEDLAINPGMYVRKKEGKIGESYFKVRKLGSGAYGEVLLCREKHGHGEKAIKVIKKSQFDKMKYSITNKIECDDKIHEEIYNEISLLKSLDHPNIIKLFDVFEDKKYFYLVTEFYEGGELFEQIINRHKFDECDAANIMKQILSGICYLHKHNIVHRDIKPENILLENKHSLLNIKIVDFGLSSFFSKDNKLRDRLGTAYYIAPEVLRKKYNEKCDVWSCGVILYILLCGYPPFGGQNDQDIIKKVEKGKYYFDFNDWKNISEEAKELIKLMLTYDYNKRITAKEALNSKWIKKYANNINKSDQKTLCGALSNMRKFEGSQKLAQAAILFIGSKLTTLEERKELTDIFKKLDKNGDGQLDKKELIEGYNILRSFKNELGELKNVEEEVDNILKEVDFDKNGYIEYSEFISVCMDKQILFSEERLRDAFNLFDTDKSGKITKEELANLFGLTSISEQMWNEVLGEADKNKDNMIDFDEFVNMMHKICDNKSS

As to `Nc1cc(C(F)(F)F)c(-c2cc(N3CCOCC3)nc(N3CCOCC3)n2)cn1` [Buparlisib], the remaining activity at 1 µM at panel of 442 kinases [1] was 87%; at panel of 442 kinases [2], 99%. For the same molecule, the remaining activity at 10 µM at panel of 442 kinases [1] (10 µM, read-out: % of control at 10 µM) came out at 94%; on panel of 442 kinases [2], 100%.
`Cn1c(=O)n(-c2ccc(C(C)(C)C#N)cc2)c2c3cc(-c4cnc5ccccc5c4)ccc3ncc21` [Dactolisib, 2-methyl-2-[4-(3-methyl-2-oxo-8-quinolin-3-yl-2,3-dihydroimidazo[4,5-c]quinolin-1-yl)-phenyl] propionitrile]: the figures for the remaining activity at 1 µM at panel of 442 kinases [3], on panel of 442 kinases [1] and at panel of 442 kinases [2] were 12%, 100% and 89%, respectively.
Taken in the same sequence, the figures for `COc1ncc(-c2ccc3nccc(-c4ccnnc4)c3c2)cc1NS(=O)(=O)c1ccc(F)cc1F` [Omipalisib] were 0%, 100% and 100%.
Take `CS(=O)(=O)N1CCN(Cc2cc3nc(-c4cccc5[nH]ncc45)nc(N4CCOCC4)c3s2)CC1` [Pictilisib, 2-(1H-indazol-4-yl)-6-(4-methanesulfonyl-piperazin-1-ylmethyl)-4-morpholin-4-yl-t hieno[3,2-d]pyrimidine]: on panel of 442 kinases [2], the remaining activity at 1 µM was determined as 100% and the remaining activity at 10 µM came out at 63%.
For the molecule `FC(F)c1nc2ccccc2n1-c1nc(N2CCOCC2)nc(N2CCOCC2)n1` [ZSTK474, 2-(difluoromethyl)-1-[4,6-di(4-morpholinyl)-1,3,5-triazin-2-yl]-1H-benzimidazole], the remaining activity at 1 µM at panel of 442 kinases [3] is 0%; on panel of 442 kinases [1] it was 100%; on panel of 442 kinases [2], 82%.

The record behind these values is PMC5564600 (Oncotarget, 2017).
